The values that follow come from article PMC10650850, “Discovery, Structure–Activity Relationship and In Vitro Anticancer Activity of Small-Molecule Inhibitors of the Protein–Protein Interactions between AF9/ENL and AF4 or DOT1L” (Cancers, 2023).

One assay addresses T1, AF9-DOT1L interaction (Homo sapiens, UniProt P42568).
T1 construct: human AF9 AHD domain (475–568); made in house; host or cells: E. coli BL21(DE3)
T1 sequence (P42568 475-568): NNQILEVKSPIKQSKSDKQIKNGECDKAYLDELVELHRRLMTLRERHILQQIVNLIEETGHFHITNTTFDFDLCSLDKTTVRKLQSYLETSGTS
As to the kind of experiment: AlphaLisa assay, AF9-DOT1L interaction. In kind it is binding. The method, boiled down:
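AlphaLisa proximity assay using MBP-tagged human AF9 AHD (475–568, 5 nM) on anti-MBP acceptor beads and biotinylated DOT1L peptide (40 nM) on streptavidin donor beads, in PBS with 0.5% BSA, pH 7.5. Compound titrated; IC50 from dose-response fits of 3 independent experiments.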

The target in assay [1] is AF9/ENL-DOT1L interaction. Also on record: method as in PMID 30258537, PMID 35612819. The note with it: printed in Chart 1; ref [33],[34]; cited from earlier work.

Structures can show the parent of a compound that is named as a salt.

`N#Cc1cccc(-c2ccc3cc(C(=O)NCC4CCNCC4)[nH]c3c2)c1` [Compound 10, 6-(3-Cyanophenyl)-N-(piperidin-4-ylmethyl)-1H-indole-2-carboxamide hydrochloride]: the IC50 on AF9-DOT1L interaction (MBP-protein 5 nM, biotinylated peptide 40 nM, 3 independent experiments with standard deviation, read-out: IC50 (μM) against the AF9-DOT1L interaction) is 2.1 µM. Besides, the inhibition at 5 µM on AF9-DOT1L interaction (compound at 5 μM, read-out: % Inhibition at 5 μM against the AF9-DOT1L interaction) is 0%. The Ki in assay [1] is 9 nM.

By IC50 is commonly meant the midpoint of a concentration-inhibition curve. By inhibition is commonly meant the change of the read-out against control, counted positive when it falls. The term Ki denotes a dissociation constant, usually derived from enzyme kinetics or from competition with a known ligand.
